Test results published in ChEMBL document CHEMBL1201862, “PubChem BioAssay data set” (2004).
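How tested: cells in 96-well plates exposed to compound for 48 hours at five concentrations. Abbreviation: GI50, concentration required for 50% inhibition of growth.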 Active and inactive are the calls of the source. Rule as the data show it: active = GI50 up to about 1.1 µM and inactive = higher.

Key:
Assay in all cases: growth of human tumour cells (NCI), 48 h
[1] = system: NCI-H226
[2] = system: OVCAR-8
[3] = system: NCI-H522
[4] = system: OVCAR-3
[5] = system: RPMI-8226
[6] = system: M14
[7] = system: CAKI-1
[8] = system: UO-31
[9] = system: TK-10
[10] = system: HCT-15
[11] = system: UACC-257
[12] = system: MDA-N
[13] = system: KM12
[14] = system: COLO 205
[15] = system: DU-145
[16] = system: MDA-MB-435
[17] = system: SK-MEL-28
[18] = system: LOX IMVI
[19] = system: SF-295
[20] = system: 786-0

For `COC(=O)/C=C\n1ncc(=O)[nH]c1=O`, the GI50 [1] was > 100 µM (inactive), the GI50 [2] was > 100 µM (inactive) and the GI50 [3] was 52.1 µM (inactive). The GI50 [4] was > 100 µM (inactive), the GI50 [5] was > 100 µM (inactive) and the GI50 [6] was > 100 µM (inactive). The GI50 [7] was > 100 µM (inactive), the GI50 [8] was > 100 µM (inactive) and the GI50 [9] was > 100 µM (inactive). For the same compound, the GI50 [10] was > 100 µM, the GI50 [11] was > 100 µM (inactive) and the GI50 [12] was > 100 µM (inactive). The GI50 [13] was > 10 µM (inactive), the GI50 [14] was > 100 µM (inactive) and the GI50 [15] was > 100 µM (inactive). The GI50 [16] was 99.5 µM (inactive) and the GI50 [17] was > 100 µM (inactive).

`O=C(O)CCCN1CCCCC1` was tested, and the GI50 [1] was > 100 µM (inactive), the GI50 [2] was > 100 µM (inactive) and the GI50 [3] was > 100 µM (inactive). For the same compound, the GI50 [4] was > 100 µM (inactive), the GI50 [5] was > 100 µM (inactive) and the GI50 [18] was > 100 µM (inactive). The GI50 [6] was > 100 µM (inactive), the GI50 [7] was > 100 µM (inactive) and the GI50 [8] was > 100 µM (inactive). The GI50 [9] was > 100 µM (inactive), the GI50 [10] was > 100 µM and the GI50 [19] was > 100 µM (inactive). The GI50 [11] was > 100 µM (inactive), the GI50 [12] was > 100 µM (inactive) and the GI50 [13] was > 100 µM (inactive). The GI50 [20] was > 100 µM (inactive), the GI50 [15] was > 100 µM (inactive) and the GI50 [16] was > 100 µM (inactive). The GI50 [17] was > 100 µM (inactive).

For `COc1cc2c(c(N)c1OC)C(=O)/C(=C/c1cc(C)c(O)c(C)c1)C2`, the GI50 [1] was 4.19 µM (inactive), the GI50 [2] was < 0.01 µM (active) and the GI50 [3] was < 0.01 µM (active). The GI50 [4] was < 0.01 µM (active), the GI50 [5] was < 0.01 µM (active) and the GI50 [18] was < 0.01 µM (active). For the same compound, the GI50 [6] was < 0.01 µM (active), the GI50 [7] was 4.25 µM (inactive) and the GI50 [9] was > 76 µM (inactive). For the same compound, the GI50 [10] was < 0.01 µM, the GI50 [19] was 0.0562 µM (active) and the GI50 [11] was > 100 µM (inactive). For the same compound, the GI50 [12] was < 0.01 µM (active), the GI50 [13] was < 0.01 µM (active) and the GI50 [20] was < 0.01 µM (active). For the same compound, the GI50 [14] was 5.6 µM (inactive), the GI50 [15] was < 0.01 µM (active) and the GI50 [16] was < 0.01 µM (active).

With `NC(=O)/N=C(\N)NC(=O)c1ccccc1` the GI50 [1] was > 100 µM (inactive), the GI50 [2] was > 100 µM (inactive) and the GI50 [3] was > 100 µM (inactive). For the same compound, the GI50 [4] was > 100 µM (inactive), the GI50 [18] was > 100 µM (inactive) and the GI50 [6] was > 100 µM (inactive). The GI50 [7] was > 100 µM (inactive), the GI50 [8] was > 100 µM (inactive) and the GI50 [9] was > 100 µM (inactive). For the same compound, the GI50 [10] was > 100 µM, the GI50 [19] was > 100 µM (inactive) and the GI50 [11] was > 100 µM (inactive). For the same compound, the GI50 [12] was > 100 µM (inactive), the GI50 [13] was > 100 µM (inactive) and the GI50 [20] was > 100 µM (inactive). For the same compound, the GI50 [15] was > 100 µM (inactive), the GI50 [16] was > 100 µM (inactive) and the GI50 [17] was > 100 µM (inactive).

With `CCOC(=O)c1csc(NC(=O)CN2CCN(c3ccccc3)CC2)n1` the GI50 [1] was > 100 µM (inactive), the GI50 [2] was > 100 µM (inactive) and the GI50 [4] was > 100 µM (inactive). For the same compound, the GI50 [5] was > 100 µM (inactive), the GI50 [18] was > 100 µM (inactive) and the GI50 [6] was > 100 µM (inactive). The GI50 [7] was > 100 µM (inactive), the GI50 [8] was > 100 µM (inactive) and the GI50 [9] was > 100 µM (inactive). For the same compound, the GI50 [10] was > 100 µM, the GI50 [19] was > 100 µM (inactive) and the GI50 [11] was > 100 µM (inactive). The GI50 [12] was > 100 µM (inactive), the GI50 [13] was > 100 µM (inactive) and the GI50 [14] was > 100 µM (inactive). The GI50 [15] was > 100 µM (inactive), the GI50 [16] was > 100 µM (inactive) and the GI50 [17] was > 100 µM (inactive).

For `COc1ccc(NC(=S)N/N=C\c2ccc(NC(C)=O)cc2)cc1`, the GI50 [3] was > 100 µM (inactive), the GI50 [4] was > 100 µM (inactive) and the GI50 [5] was > 100 µM (inactive). For the same compound, the GI50 [18] was > 100 µM (inactive), the GI50 [6] was > 100 µM (inactive) and the GI50 [7] was > 100 µM (inactive). The GI50 [8] was > 100 µM (inactive), the GI50 [9] was > 100 µM (inactive) and the GI50 [19] was > 100 µM (inactive). For the same compound, the GI50 [11] was > 100 µM (inactive), the GI50 [12] was > 100 µM (inactive) and the GI50 [13] was > 100 µM (inactive). The GI50 [20] was > 100 µM (inactive), the GI50 [14] was > 100 µM (inactive) and the GI50 [15] was > 100 µM (inactive). For the same compound, the GI50 [16] was > 100 µM (inactive) and the GI50 [17] was > 100 µM (inactive).

`COc1cc(Oc2nc3ccc(C(F)(F)F)cc3nc2-c2ccccc2)cc(OC)c1OC` was tested, and the GI50 [1] was 33.3 µM (inactive), the GI50 [2] was 45.8 µM (inactive) and the GI50 [3] was 25.1 µM (inactive). For the same compound, the GI50 [4] was 27.5 µM (inactive), the GI50 [5] was 36.8 µM (inactive) and the GI50 [18] was 18.4 µM (inactive). The GI50 [7] was 5.06 µM (inactive), the GI50 [8] was > 100 µM (inactive) and the GI50 [9] was 30.1 µM (inactive). The GI50 [10] was > 100 µM, the GI50 [19] was 9.48 µM (inactive) and the GI50 [11] was 48.8 µM (inactive). The GI50 [12] was 40.7 µM (inactive), the GI50 [13] was 66.2 µM (inactive) and the GI50 [20] was 3.21 µM (inactive). The GI50 [14] was 15.2 µM (inactive), the GI50 [15] was > 100 µM (inactive) and the GI50 [16] was 30.4 µM (inactive). For the same compound, the GI50 [17] was 33.9 µM (inactive).

With `Fc1cccc(C2SCC3=Nc4ccccc4CN32)c1` (centres undefined) the GI50 [2] was 27 µM (inactive), the GI50 [4] was 20.2 µM (inactive) and the GI50 [5] was 36.8 µM (inactive). For the same compound, the GI50 [18] was 40.6 µM (inactive), the GI50 [6] was 33.3 µM (inactive) and the GI50 [7] was > 100 µM (inactive). For the same compound, the GI50 [8] was 41.5 µM (inactive), the GI50 [9] was 67.8 µM (inactive) and the GI50 [10] was 58.9 µM. For the same compound, the GI50 [19] was 26.6 µM (inactive), the GI50 [11] was 97.9 µM (inactive) and the GI50 [12] was 79.1 µM (inactive). For the same compound, the GI50 [13] was 95.5 µM (inactive), the GI50 [20] was 37.8 µM (inactive) and the GI50 [14] was 28.4 µM (inactive). The GI50 [15] was 52.4 µM (inactive), the GI50 [16] was 33 µM (inactive) and the GI50 [17] was 98.6 µM (inactive).
